# Reference: paper PMC3038857, “Using Nuclear Receptor Activity to Stratify Hepatocarcinogens” (PLoS ONE, 2011)
# Columns and labels:
# [1] = target: T1, AHR (aryl hydrocarbon receptor) (Homo sapiens, UniProt P35869); assay: ATG_Ahr_CIS: Factorial reporter gene assay (multiplexed transcription reporter, HepG2); type: cell-based; set-up: scale not given here
# T1 construct: endogenous in cells; host or cells: HepG2
# T1 sequence (P35869 11-848): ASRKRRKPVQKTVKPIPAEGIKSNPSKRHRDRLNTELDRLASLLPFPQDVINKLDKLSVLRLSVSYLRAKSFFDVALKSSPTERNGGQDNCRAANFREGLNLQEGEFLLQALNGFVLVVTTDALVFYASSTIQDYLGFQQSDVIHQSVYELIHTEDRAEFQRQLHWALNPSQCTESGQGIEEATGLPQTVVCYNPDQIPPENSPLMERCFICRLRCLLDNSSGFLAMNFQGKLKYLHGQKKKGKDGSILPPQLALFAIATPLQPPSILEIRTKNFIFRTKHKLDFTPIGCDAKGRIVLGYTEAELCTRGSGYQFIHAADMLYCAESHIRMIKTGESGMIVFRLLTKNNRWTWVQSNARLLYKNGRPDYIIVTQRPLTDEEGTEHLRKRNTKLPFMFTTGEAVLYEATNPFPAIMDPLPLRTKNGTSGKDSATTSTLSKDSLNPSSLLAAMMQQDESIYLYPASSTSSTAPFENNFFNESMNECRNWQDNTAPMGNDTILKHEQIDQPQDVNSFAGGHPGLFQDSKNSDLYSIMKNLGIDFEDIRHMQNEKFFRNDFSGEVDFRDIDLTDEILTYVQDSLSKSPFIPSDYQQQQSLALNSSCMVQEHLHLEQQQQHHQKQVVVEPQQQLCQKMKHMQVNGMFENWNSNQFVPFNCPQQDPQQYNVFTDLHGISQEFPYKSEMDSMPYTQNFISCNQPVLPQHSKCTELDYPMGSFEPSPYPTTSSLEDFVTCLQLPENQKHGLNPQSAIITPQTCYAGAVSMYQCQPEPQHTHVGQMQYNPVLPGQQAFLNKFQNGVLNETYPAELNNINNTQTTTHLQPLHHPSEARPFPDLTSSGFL
# Procedure, shortened: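 HepG2 cells transfected with multiplexed reporter libraries: cis-acting binding-site reporters (CIS) and a one-hybrid nuclear-receptor trans system (TRANS). Chemicals tested at seven concentrations, starting at the maximum tolerated concentration with three-fold serial dilutions.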
# LXRb (NR1H2) = target: T2, LXRb (NR1H2) (Homo sapiens, UniProt P55055); assay: ATG_LXRb_TRANS: Factorial reporter gene assay (HepG2); type: cell-based
# T2 construct: expressed in transfected cells; host or cells: HepG2
# T2 sequence (P55055 1-460): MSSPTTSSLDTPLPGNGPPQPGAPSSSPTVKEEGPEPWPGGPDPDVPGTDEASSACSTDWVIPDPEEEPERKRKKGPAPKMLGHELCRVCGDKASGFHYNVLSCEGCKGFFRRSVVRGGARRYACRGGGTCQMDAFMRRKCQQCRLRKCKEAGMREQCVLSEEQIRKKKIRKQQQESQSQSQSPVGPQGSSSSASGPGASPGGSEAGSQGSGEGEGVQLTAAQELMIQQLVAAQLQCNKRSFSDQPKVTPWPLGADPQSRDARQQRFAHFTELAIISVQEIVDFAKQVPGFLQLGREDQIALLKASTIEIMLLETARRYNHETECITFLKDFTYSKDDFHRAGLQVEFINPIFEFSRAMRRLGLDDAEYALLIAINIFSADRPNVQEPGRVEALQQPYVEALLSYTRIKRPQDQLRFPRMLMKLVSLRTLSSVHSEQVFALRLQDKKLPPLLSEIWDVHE
# Method: (§1) A multiple reporter transcription unit (MRTU) library consisting of 48 transcription factor binding sites was transfected into the HepG2 human liver hepatoma cell line. In addition to the cis-acting reporter genes (CIS), a modification of the approach was used to generate a trans-system (TRANS) with a mammalian one-hybrid assay consisting of an additional 25 MRTU library reporting the activity of nuclear receptor super-family members. […] These assays were performed by Attagene Inc. (Morrisville NC) under contract to EPA.
# (§2) In addition to the cis-acting reporter genes (CIS), a modification of the approach was used to generate a trans-system (TRANS) with a mammalian one-hybrid assay consisting of an additional 25 MRTU library reporting the activity of nuclear receptor super-family members. […] Chemicals were then tested in the CIS and TRANS assays at seven concentrations starting at the MTC and followed by three-fold serial dilutions. These assays were performed by Attagene Inc. (Morrisville NC) under contract to EPA. Detailed description of the methods, data and analysis methods for this dataset will be presented in a separate publication.
# [2] = target: T3, PPARA (peroxisome proliferator-activated receptor alpha) (Homo sapiens, UniProt Q07869); assay: ATG_PPARa_TRANS: Factorial reporter gene assay (HepG2); type: cell-based; set-up: scale not given here; settings: scale not given, looks like -log10 of molar active concentration, 0 = no activity
# T3 construct: expressed in transfected cells; host or cells: HepG2
# T3 sequence (Q07869 1-468): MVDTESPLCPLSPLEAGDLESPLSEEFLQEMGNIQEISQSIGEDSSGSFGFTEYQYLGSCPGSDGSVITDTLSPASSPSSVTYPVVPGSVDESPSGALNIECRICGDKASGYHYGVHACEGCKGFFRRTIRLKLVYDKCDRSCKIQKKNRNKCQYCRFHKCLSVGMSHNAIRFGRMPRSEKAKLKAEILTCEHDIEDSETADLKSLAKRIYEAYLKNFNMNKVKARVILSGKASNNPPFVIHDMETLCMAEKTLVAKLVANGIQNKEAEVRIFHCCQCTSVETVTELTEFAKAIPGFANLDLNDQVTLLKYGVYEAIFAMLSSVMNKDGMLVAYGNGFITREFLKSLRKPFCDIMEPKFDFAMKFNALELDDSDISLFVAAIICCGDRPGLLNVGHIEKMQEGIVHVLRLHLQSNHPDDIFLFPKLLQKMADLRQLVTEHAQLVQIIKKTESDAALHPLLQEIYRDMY
# Method: as §1, §2
# ERa (ESR1) = target: T4, ERa (ESR1) (Homo sapiens, UniProt P03372); assay: NCGC_ERalpha_Antagonist: GAL4 BLAM Reporter gene assay: ERa; type: cell-based; settings: antagonist mode; scale not given, looks like -log10 of molar active concentration; 0 = no activity
# T4 construct: expressed in transfected cells; host or cells: HEK293
# T4 sequence (P03372 whole entry, the tested form may be a part): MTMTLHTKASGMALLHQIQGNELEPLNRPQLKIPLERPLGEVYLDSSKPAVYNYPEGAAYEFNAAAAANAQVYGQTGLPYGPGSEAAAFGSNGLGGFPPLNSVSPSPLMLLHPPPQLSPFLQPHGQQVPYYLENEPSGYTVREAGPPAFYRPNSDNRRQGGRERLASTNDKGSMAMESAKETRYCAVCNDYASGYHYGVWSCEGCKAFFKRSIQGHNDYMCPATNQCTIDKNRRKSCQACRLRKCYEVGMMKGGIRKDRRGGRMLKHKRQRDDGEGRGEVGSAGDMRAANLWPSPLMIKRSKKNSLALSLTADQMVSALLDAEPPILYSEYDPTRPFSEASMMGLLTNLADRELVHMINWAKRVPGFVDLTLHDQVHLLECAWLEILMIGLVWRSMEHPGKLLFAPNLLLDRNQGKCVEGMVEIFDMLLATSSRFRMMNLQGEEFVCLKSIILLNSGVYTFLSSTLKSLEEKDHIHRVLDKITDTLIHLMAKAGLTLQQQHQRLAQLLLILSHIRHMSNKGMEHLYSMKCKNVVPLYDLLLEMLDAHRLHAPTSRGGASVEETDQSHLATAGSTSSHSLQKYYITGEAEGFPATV
# LXRa (NR1H2) = assay: NCGC_LXR_Agonist: GAL4 BLAM Reporter gene assay: LXRa; type: cell-based, human; settings: agonist mode
# Method: These assays measure binding constants and enzyme inhibition values for nuclear receptors. The targets include [drawing 67] , [drawing 68] , [drawing 69] , [drawing 70] , [drawing 71] , [drawing 72] , [drawing 73] , [drawing 74] , [drawing 75] and [drawing 76] . Each of the nuclear receptor targets was measured in agonist mode. Assays were run at the NIH Chemical Genomics Center (Rockville, MD).
# Cell-based HTS Assays: These assays measuring binding constants and enzyme inhibition values for nuclear receptors. The targets include AR, ER, FXR, LXR, PPARα, PPARδ, PPARγ, RXRα, RXRβ and PXR. Each of the nuclear receptor targets was measured in both agonist and antagonist mode, but the antagonist data is still undergoing analysis due to possible interference between cytotoxicity and assay activity, so antagonist mode data were not used in the present analysis. Assays were run at the NIH Chemical Genomics Center (Rockville, MD) as part of the Tox21 collaboration. […] The R^2 was required to be ≥0.5. Values where only the highest concentration exceeded 50% activity were excluded to eliminate weak or false positives. Detailed description of the methods, data and analysis methods for this dataset will be presented in a separate publication.
# [3] = HepG2, scale not given, looks like -log10 of molar active concentration, 0 = no activity
# [4] = scale not given, looks like -log10 of molar active concentration, 0 = no activity
SMILES,"ATG_Ahr_CIS [1, 3]",ATG_LXRb_TRANS (LXRb (NR1H2); [3]),ATG_PPARa_TRANS [2],NCGC_ERalpha_Antagonist (ERa (ESR1)),NCGC_LXR_Agonist (LXRa (NR1H2); [4]),ATG_Ahr_CIS ([1]; HepG2 reporter),ATG_Ahr_CIS ([1]; HepG2),NCGC_LXR_Agonist (LXRa (NR1H2)),ATG_LXRb_TRANS (LXRb (NR1H2); HepG2 reporter)
C=CCOC(=O)C(C)(C)OC(=O)c1cc(-n2c(=O)cc(C(F)(F)F)n(C)c2=O)ccc1Cl [r47],0,0,0,0,0,,,,
CC1=C(C(=O)Nc2ccccc2)SCCO1 [r53],0,0,0,0,0,,,,
O=C(Nc1ccccc1-c1ccc(Cl)cc1)c1cccnc1Cl [r42],0,0,0,0,0,,,,
COc1ccc(-c2ccccc2)cc1NNC(=O)OC(C)C [r38],,0,0,4.31,0,,,,
N#Cc1cc(Br)c(O)c(Br)c1 [r44],4.319,0,4.678,0,0,,,,
CC(C)OC(=O)Nc1cccc(Cl)c1 [r59],0,0,0,0,0,,,,
CCC(C)n1c(=O)[nH]c(C)c(Br)c1=O (centres unmarked) [r43],0,0,0,0,0,,,,
COc1nc(C)nc(NC(=O)NS(=O)(=O)c2ccccc2Cl)n1 [r62],0,0,0,0,0,,,,
CC(C)N1C(=O)c2ccccc2NS1(=O)=O [r37],0,4.357,0,0,0,,,,
CCc1ccc(C(=O)NN(C(=O)c2cc(C)cc(C)c2)C(C)(C)C)cc1 [r290],,,,,,4.337,,,
CCOC(=O)C(Cl)Cc1cc(-n2nc(C)n(C(F)F)c2=O)c(F)cc1Cl (centres unmarked) [r54],0,0,0,0,0,,,,
CCC(C)Nc1c([N+](=O)[O-])cc(C(C)(C)C)cc1[N+](=O)[O-] (centres unmarked) [r48],0,0,0,0,0,,,,
O=C1C2CC=CCC2C(=O)N1SC(Cl)(Cl)Cl (centres unmarked) [r51],0,0,0,0,0,,,,
CC(C)N1C(=O)N(c2ccccc2)CS/C1=N\C(C)(C)C [r45],0,0,0,0,0,,,,
COc1cccc(C(=O)NN(C(=O)c2cc(C)cc(C)c2)C(C)(C)C)c1C [row 202],,,,,,,4.409,,
N#Cc1c(Cl)c(Cl)c(Cl)c(C#N)c1Cl [r58],0,0,0,0,0,,,,
C#CCC1=C(C)[C@H](OC(=O)[C@H]2[C@H](C=C(C)C)C2(C)C)CC1=O [r249],,,,,,,,4.777,
CC(C)(c1ccc(O)cc1)c1ccc(O)cc1 [r40],4.495,0,0,4.77,0,,,,
Cc1c(COC(=O)C2C(/C=C(\Cl)C(F)(F)F)C2(C)C)cccc1-c1ccccc1 (centres unmarked) [r39],0,0,0,0,0,,,,
CCc1nn(C)c(C(=O)NCc2ccc(C(C)(C)C)cc2)c1Cl [r291],,,,,,,,,6.337
CCCC1COC(Cn2cncn2)(c2ccc(Cl)cc2Cl)O1 (centres unmarked) [r262],,,,,,,4.367,,
Cc1ccccc1CO[C@@H]1C[C@@]2(C(C)C)CC[C@]1(C)O2 [r64],0,0,0,,0,,,,
Nc1cnn(-c2ccccc2)c(=O)c1Cl [r56],4.444,0,0,0,0,,,,
COC(=O)c1ccccc1CS(=O)(=O)NC(=O)Nc1nc(OC)cc(OC)n1 [r33],0,4.347,0,0,0,,,,
COc1cc(Cl)c(OC)cc1Cl [r57],0,0,0,0,0,,,,
CCCN(CCC)c1c([N+](=O)[O-])cc(C(F)(F)F)c(N)c1[N+](=O)[O-] [r252],,,,,,,4.444,,
CNC(=O)Oc1cccc2ccccc12 [r52],4.456,0,0,0,0,,,,
CCN(CC)C(=O)C(C)Oc1cccc2ccccc12 (centres unmarked) [row 219],,,,,,,4.456,,
